{"source": "patent US10150748B2", "about": "“Salt or abexinostat, associated crystalline form, a process for their preparation and pharmaceutical compositions containing them” (Pharmacyclics LLC, priority 2013, dated 2018)", "assay": "Hygroscopicity by dynamic vapor sorption (DVS)", "format": "physicochemical", "conditions": "relative humidities from 0% to 90% at 25° C.", "experimental": "Hygroscopicity of form I of abexinostat tosylate was assessed using dynamic vapor sorption (DVS) technique. 5 to 10 mg of the drug substance test sample were accurately weighed into a DVS sample pan working at 25° C. under controlled humidity. The mass variation was recorded whilst drying under 0 percent RH (relative humidity) and during two subsequent cycles of increasing and decreasing linear variations of relative humidity in the range 0-90 percent RH at a rate of 10 percent per hour. The relative humidity was maintained constant when it reached either 0 or 90 percent RH until the mass variation was less than 0.002 percent, per minute within a limit of time of 15 h."}
{"smiles": "CN(C)Cc1c(C(=O)NCCOc2ccc(C(=O)NO)cc2)oc2ccccc12.Cc1ccc(S(=O)(=O)O)cc1", "note": "[form I of abexinostat tosylate, N-hydroxy-4-{2-[3-(N,N-dimethylaminomethyl)benzofuran-2-ylcarbonylamino]ethoxy}benzamide tosylate]", "values": [{"measurement": "increase in weight detected by DVS analysis", "value": "lower than 0.5%"}]}
